Experimental data as given in US7786142B2, “Heterocyclic compounds as pSTAT3/IL-6 inhibitors” (Orchid Research Laboratories, Ltd., priority 2005, dated 2010).

What was measured:
[1] = system: NCIH460 cells; assay: Anti-cancer screen (MTT), NCIH460 cells; assay type: cell-based; conditions: Homo sapiens, NCI-H460, NCIH460, 48 hours, concentrations tested 0.01-100 μM; for CC50: read-out: LC50 (the source's name)
Protocol: (§1) Experimental drugs are screened for anti-cancer activity in three cell lines for their GI50, TGI and LC50 values (using five concentrations for each compound). The cell lines are maintained in DMEM containing 10% fetal bovine serum. 96 well micro titer plates are inoculated with cells in 100 μL for 24 hours at 37° C., 5% CO2, 95% air and 100% relative humidity. 5000 HCT116 cells/well, 5000 NCIH460 cells/well and 5000 U251 cells/well are plated. A separate plate with these cell lines is also inoculated to determine cell viability before the addition of the compounds (T0), (See Table I).
(§2) Following 24-hours incubation, experimental drugs are added to the 96 well plates. Each plate contains one of the above cell lines and the following in triplicate: five different concentrations (0.01, 0.1, 1, 10 and 100 μM) of four different compounds, appropriate dilutions of a cytotoxic standard and control (untreated) wells. Compounds are dissolved in DMSO to make 20 mM stock solutions on the day of drug addition and frozen at −20° C. Serial dilutions of these 20 mM stock solutions are made in complete growth medium such that 100 μL of these drug solutions in medium, of final concentrations equaling 0.01, 0.1, 1, 10 and 100 μM can be added to the cells in triplicate. Standard drugs whose anti-cancer activity has been well documented and which are regularly used are Doxorubicin and SAHA, (See Table I).
(§3) For T0 measurement, 24 hours after seeding the cells, 10 μL of 3-(4,5-Dimethyl-2-thiazolyl)-2,5-diphenyl-2H-tetrazolium (MTT) solution per well is added and incubation carried out for 3 hours at 37° C., 5% CO2, 95% air and 100% relative humidity, protected from light. Cells incubated with compounds for 48 hours are treated similarly except with the addition of 20 μL MTT solution per well and a subsequent incubation under the same conditions. After 3 hours of MTT incubation, well contents are aspirated carefully followed by addition of 150 μL DMSO per well. Plates are agitated to ensure solution of the formazan crystals in DMSO and absorbance read at 570 nm, (See Table I).
(§4) Percent growth is calculated for each compound's concentration relative to the control and zero measurement wells (T0; viability right before compound addition). If a test well's O.D. value is greater than the T0 measurement for that cell line % Growth=(test−zero)/(control−zero)×100

[2] = system: HCT116 cells; assay: Anti-cancer screen (MTT), HCT116 cells; assay type: cell-based; conditions: Homo sapiens, HCT-116, HCT116, 48 hours, concentrations tested 0.01-100 μM
Protocol: as §1, §2, §3, §4

[3] = system: MDAMB-231/U 251; assay: Anti-cancer screen (MTT), MDAMB-231/U 251 cells; assay type: cell-based; conditions: MDAMB-231/U 251, 48 hours, concentrations tested 0.01-100 μM; for CC50: read-out: LC50 (the source's name)
Protocol: as §1, §2, §3, §4

[4] = system: NCIH460, HCT116, MDAMB-231/U 251; assay: Anti-cancer screen, mean GI50 over the cell lines; assay type: cell-based
Protocol: as §1, §2, §3, §4

[5] = system: IL-6; assay: IL-6 in culture supernatants of NCIH 460 cells (ELISA); assay type: cell-based, Human; conditions: Homo sapiens, NCI-H460, NCIH 460, 5 hours
Protocol: Human Lung Cancer cell line (NCIH 460) is used for IL-6 measurement. 5000 cells/well were seeded in a 96 well plate and incubated in CO2 incubator at 37° C. for 24 hours. After 24 hours of incubation the medium from all wells were completed removed and added 100 μl of fresh DMEM containing 10% FCS. 100 μl of different concentrations of the drug were added and incubated for 5 hours in CO2 incubator at 37° C. After 5 hours of incubation the supernatants were collected and stored at −80° C. The concentration of IL-6 in the supernatant was measured using ELISA kit and the IC50 value of the compound was determined from the dose response curve, (See Table II).

`COc1cc(CN2CCN(CC(O)COc3cccc4[nH]c5ccccc5c34)CC2)cc(OC)c1` (centres unmarked) [Example 30, 1-(9H-carbazol-4-yloxy)-3-[4-(3,5-dimethoxybenzyl)piperazin-1-yl]propan-2-ol] showed a GI50 [1] of 30 µM, an IC (TGI) [1] of 60 µM and a CC50 [1] of 90 µM. The GI50 [2] was 25 µM, the IC (TGI) [2] was 72 µM and the LC50 (concentration for 50% net cell kill relative to T0) [2] was 84 µM. For the same compound, the GI50 [3] was 2.5 µM, the IC (TGI) [3] was 9 µM and the CC50 [3] was 70 µM. The GI50 [4] was 19.2 µM.

For `Cc1cc(C)nc(NCC(O)COc2cccc3[nH]c4ccccc4c23)n1` (centres unmarked) [Example 15, 1-(9H-carbazol-4-yloxy)-3-[(4,6-dimethylpyrimidin-2-yl)amino]propan-2-ol], the GI50 [1] was over 100 µM, the IC (TGI) [1] was over 100 µM and the CC50 [1] was over 100 µM. The GI50 [2] was over 100 µM, the IC (TGI) [2] was over 100 µM and the LC50 (concentration for 50% net cell kill relative to T0) [2] was over 100 µM. For the same compound, the GI50 [3] was 8 µM, the IC (TGI) [3] was over 100 µM and the CC50 [3] was over 100 µM. It also gave a GI50 [4] of 8 µM.

`OC(COc1cccc2[nH]c3ccccc3c12)CN1CCN(Cc2ccc(F)c(F)c2)CC1` (centres unmarked) [Example 31, 1-(9H-carbazol-4-yloxy)-3-[4-(3,4-difluorobenzyl)piperazin-1-yl]propan-2-ol] was tested, and the GI50 [1] was 35 µM, the IC (TGI) [1] was 90 µM and the CC50 [1] was 65 µM. For the same compound, the GI50 [2] was 38 µM, the IC (TGI) [2] was 66 µM and the LC50 (concentration for 50% net cell kill relative to T0) [2] was 92 µM. For the same compound, the GI50 [3] was 4 µM, the IC (TGI) [3] was 7 µM and the CC50 [3] was 10 µM. The GI50 [4] was 25.7 µM.

Compound `OC(COc1cccc2[nH]c3ccccc3c12)CN1CCc2sccc2C1` (centres unmarked) [Example 4, 1-(9H-carbazol-4-yloxy)-3-(6,7-dihydrothieno[3,2-c]pyridin-5(4H)-yl)propan-2-ol] has a GI50 [1] of 18 µM, an IC (TGI) [1] of 47 µM and a CC50 [1] of 80 µM. The GI50 [2] was 32 µM, the IC (TGI) [2] was 57 µM and the LC50 (concentration for 50% net cell kill relative to T0) [2] was 82 µM. The GI50 [3] was 34 µM, the IC (TGI) [3] was 59 µM and the CC50 [3] was 84 µM. It also gave a GI50 [4] of 28 µM.

`O=[N+]([O-])c1ccc(CN2CCN(CC(O)COc3cccc4[nH]c5ccccc5c34)CC2)s1` (centres unmarked) [Example 27, 1-(9H-carbazol-4-yloxy)-3-{4-[(5-nitro-2-thienyl)methyl]piperazin-1-yl}propan-2-ol] was tested, and the GI50 [1] was 45 µM, the IC (TGI) [1] was 98 µM and the CC50 [1] was over 100 µM. For the same compound, the GI50 [2] was 30 µM, the IC (TGI) [2] was 60 µM and the LC50 (concentration for 50% net cell kill relative to T0) [2] was 90 µM. It also gave a GI50 [3] of 2.8 µM, an IC (TGI) [3] of 48 µM and a CC50 [3] of over 100 µM. The GI50 [4] was 25.9 µM.

For `COc1cc(NCC(O)COc2cccc3[nH]c4ccccc4c23)cc(OC)c1OC` (centres unmarked) [Example 8], the GI50 [1] was 15 µM, the IC (TGI) [1] was 45 µM and the CC50 [1] was 75 µM. It also gave a GI50 [2] of 5.8 µM, an IC (TGI) [2] of 22 µM and an LC50 (concentration for 50% net cell kill relative to T0) [2] of 90 µM. For the same compound, the GI50 [3] was 5 µM, the IC (TGI) [3] was 50 µM and the CC50 [3] was over 100 µM. For the same compound, the GI50 [4] was 8.6 µM.

In the case of `O=[N+]([O-])c1ccc(CN2CCN(CC(O)COc3cccc4[nH]c5ccccc5c34)CC2)o1` (centres unmarked) [Example 26, 1-(9H-carbazol-4-yloxy)-3-{4-[(5-nitro-2-furyl)methyl]piperazin-1-yl}propan-2-ol], the GI50 [1] is reported as 2 µM, the IC (TGI) [1] is reported as 22 µM and the CC50 [1] is reported as 70 µM. For the same compound, the GI50 [2] was 30 µM, the IC (TGI) [2] was 48 µM and the LC50 (concentration for 50% net cell kill relative to T0) [2] was 68 µM. For the same compound, the GI50 [3] was 30 µM, the IC (TGI) [3] was 85 µM and the CC50 [3] was over 100 µM. It also gave a GI50 [4] of 20.7 µM.

With `N#Cc1ccc(C(=O)N2CCC(NCC(O)COc3cccc4[nH]c5ccccc5c34)CC2)cn1` (centres unmarked) [Example 70, 1-(9H-carbazol-4-yloxy)-3-{[1-(6-cyanonicotine-3-carbonyl)piperidin-4-yl]amino}propan-2-ol] the GI50 [1] was 23 µM, the IC (TGI) [1] was 50 µM and the CC50 [1] was 78 µM. For the same compound, the GI50 [2] was 5 µM, the IC (TGI) [2] was 23 µM and the LC50 (concentration for 50% net cell kill relative to T0) [2] was 67 µM. It also gave a GI50 [3] of 3.5 µM, an IC (TGI) [3] of 8.9 µM and a CC50 [3] of 57 µM. It also gave a GI50 [4] of 10.5 µM.

`Cc1cccc2sc(NC(=O)CN3CCN(CC(O)COc4cccc5[nH]c6ccccc6c45)CC3)nc12` (centres unmarked) [Example 59, 2-{4-[3-(9H-carbazol-4-yloxy)-2-hydroxypropyl]-piperazin-1-yl}-N-(4-methyl-1,3-benzothiazol-2-yl)acetamide] was tested, and the GI50 [1] was 9.5 µM, the IC (TGI) [1] was over 100 µM and the CC50 [1] was over 100 µM. For the same compound, the GI50 [2] was over 100 µM, the IC (TGI) [2] was over 100 µM and the LC50 (concentration for 50% net cell kill relative to T0) [2] was over 100 µM. It also gave a GI50 [3] of 47 µM, an IC (TGI) [3] of over 100 µM and a CC50 [3] of over 100 µM. It also gave a GI50 [4] of 28.2 µM.

Compound `Cc1csc(NC(=O)CN2CCN(CC(O)COc3cccc4[nH]c5ccccc5c34)CC2)n1` (centres unmarked) [Example 60, 2-{4-[3-(9H-carbazol-4-yloxy)-2-hydroxypropyl]-piperazin-1-yl}-N-(4-methyl-1,3-thiazol-2-yl)acetamide] has a GI50 [1] of 24 µM, an IC (TGI) [1] of 61 µM and a CC50 [1] of 85 µM. The GI50 [2] was 26 µM, the IC (TGI) [2] was 62 µM and the LC50 (concentration for 50% net cell kill relative to T0) [2] was 100 µM. The GI50 [3] was over 100 µM, the IC (TGI) [3] was over 100 µM and the CC50 [3] was over 100 µM. It also gave a GI50 [4] of 25 µM.

Work on `OC(COc1cccc2[nH]c3ccccc3c12)CN1CCNCC1` (centres unmarked) [Example 3, 1-(9H-carbazol-4-yloxy)-3-piperazin-1-ylpropan-2-ol] yielded a GI50 [1] of 27 µM, an IC (TGI) [1] of 54 µM and a CC50 [1] of 80 µM. It also gave a GI50 [2] of 7 µM, an IC (TGI) [2] of 36 µM and an LC50 (concentration for 50% net cell kill relative to T0) [2] of 72 µM. The GI50 [3] was 55 µM, the IC (TGI) [3] was 77 µM and the CC50 [3] was over 100 µM. For the same compound, the GI50 [4] was 29.7 µM.

`OC(CNCc1ccccc1)COc1cccc2[nH]c3ccccc3c12` (centres unmarked) [Example 23, 1-(9H-carbazol-4-yloxy)-3-benzylaminopropan-2-ol] was tested, and the GI50 [1] was 0.79 µM, the IC (TGI) [1] was 35 µM and the CC50 [1] was 70 µM. For the same compound, the GI50 [2] was 18 µM, the IC (TGI) [2] was 47 µM and the LC50 (concentration for 50% net cell kill relative to T0) [2] was 77 µM. It also gave a GI50 [3] of 1 µM, an IC (TGI) [3] of 10 µM and a CC50 [3] of 65 µM. The GI50 [4] was 6.6 µM, the inhibition at 10 µM [5] was 29.3% and the IC50 ([5]; read-out: IL-6 Inhibition IC50) was 24 µM.

In the case of `O=C(c1ccc([N+](=O)[O-])o1)N1CCN(CC(O)COc2cccc3[nH]c4ccccc4c23)CC1` (centres unmarked) [Example 35, 1-(9H-carbazol-4-yloxy)-3-{4-(5-nitro-2-furoyl)piperazin-1-yl}propan-2-ol], the GI50 [1] is reported as 0.8 µM, the IC (TGI) [1] is reported as 7.5 µM and the CC50 [1] is reported as 60 µM. For the same compound, the GI50 [2] was 6 µM, the IC (TGI) [2] was 42 µM and the LC50 (concentration for 50% net cell kill relative to T0) [2] was 85 µM. The GI50 [3] was 3 µM, the IC (TGI) [3] was over 100 µM and the CC50 [3] was over 100 µM. It also gave a GI50 [4] of 3.27 µM, an inhibition at 1 µM ([5]; 1 μM) of 45% and an inhibition at 10 µM [5] of 80.4%.
